In patent publication EP0222912A1, “AGENT FOR TREATING ARTERIOSCLEROSIS” (ZERIA SHINYAKU KOGYO KABUSHIKI KAISHA, priority 1984, dated 1985):

Key:
Assay type in all cases: in vivo
male SD rats [1] = assay: hyperlipemia induced by Triton WR-1339; conditions: 10 mg/kg intravenously with 300 mg/kg Triton WR-1339, blood 43 hours after injection
Description: In order to examine the mechanism of the lipid decreasing effect of cycloartenol ferulate the effect of the same on hyperlipemia induced by a surfactant (Triton WR-1339) was confirmed.
The test was conducted with male SD rats aged six weeks. 300 mg/kg of Triton WR-1339 was intravenously injected to each rat of the first group to thereby induce hyperlipemia (Triton control group), while 10 mg/kg of cycloartenol ferulate or 10 mg/kg of γ-oryzanol was intravenously injected simultaneously with 300 mg/kg of Triton WR-1339 to each rat of other groups, thus examining the effect of decreasing lipids. Blood of each animal was collected 43 hours after the intravenous injection.

SD rats = assay: acute toxicity, oral, rats; conditions: 5 g/kg orally, five SD rats
Source text: (§1) In order to examine the acute toxicity of cycloartenol ferulate, it was orally administered to five dd mice and five SD rats.

male SD rats [2] = test system: male SD rats
Description: In order to examine the effect of decreasing lipids, male SD rats aged four weeks were classified into the following four groups: i.e. (1) an ordinary diet group (control); (2) a cholesterol diet group; (3) a cholesterol diet group to which cycloartenol ferulate was administered; and (4) a cholesterol diet group to which γ-oryzanol was administered.
Cycloartenol ferulate or γ-oryzanol was orally administered for 12 days repeatedly with the use of a metal probe. Each compound was administered in doses of 100 mg/kg, 500 mg/kg and 1000 mg/kg per animal a day. After each administration, blood of the animal was collected to determine free cholesterol (FC), triglyceride (TG) and phospholipids (PL) contained therein.

dd mice = assay: acute toxicity, oral, mice; conditions: 5 g/kg orally, five dd mice
Source text: as §1

Which TC (male SD rats [1]; vs Triton control group and γ-oryzanol group (Fig. 13)) does the source give for COc1cc(/C=C/C(=O)O[C@H]2CC[C@]34C[C@]35CC[C@]3(C)[C@@H]([C@H](C)CCC=C(C)C)CC[C@@]3(C)[C@@H]5CC[C@H]4C2(C)C)ccc1O [cycloartenol ferulate] here?
Its TC is “significant decreases”.

And the FC (male SD rats [1]; vs Triton control group and γ-oryzanol group (Fig. 14))?
Its FC is “significant decreases”.

What about the TG (male SD rats [1]; vs Triton control group and γ-oryzanol group (Fig. 15)) of the same compound?
The TG was “significant decreases”.

And the acute toxicity (SD rats)?
Its acute toxicity is “no animal died nor showed any toxic symptom”.

What about the “free cholesterol (FC)” value (male SD rats [2]; blood, cholesterol diet, oral, 12 days, 100, 500 and 1000 mg/kg a day, vs cholesterol diet group (Fig. 5)) of the same compound?
Its value is “lower than that of the cholesterol diet group to a statistically significant extent”.

What about the “triglyceride (TG)” value (male SD rats [2]; blood, cholesterol diet, oral, 12 days, 100, 500 and 1000 mg/kg a day, vs cholesterol diet group (Fig. 6)) of the same compound?
Its value is “lower than that of the cholesterol diet group to a statistically significant extent”.

What about the “phospholipids (PL)” value (male SD rats [2]; blood, cholesterol diet, oral, 12 days, 100, 500 and 1000 mg/kg a day, vs cholesterol diet group (Fig. 7)) of the same compound?
Its value is “lower than that of the cholesterol diet group to a statistically significant extent”.

And the body weight gain (male SD rats [2]; cholesterol diet suppresses body weight gain, oral, 12 days (Fig. 12))?
Its body weight gain is “accelerated the growth of animals”.

What about the arteriosclerosis index (male SD rats [2]; cholesterol diet, oral, 12 days (Fig. 9)) of the same compound?
The arteriosclerosis index was “remarkably lowers this index”.

What about the “HDL-cholesterol (HDLC)” value (male SD rats [2]; cholesterol diet, oral, 12 days, vs cholesterol diet group (Fig. 8)) of the same compound?
The value was “increase HDLC to a statistically significant extent”.

And the GOT (male SD rats [2]; rat, in vivo, po)?
The GOT was “no changes”.

What about the GPT (male SD rats [2]; rat, in vivo, po) of the same compound?
The GPT was “no changes”.

And the acute toxicity (dd mice)?
Its acute toxicity is “no animal died nor showed any toxic symptom”.
